Reference: patent US20210161868A1, “ANTI-INFLAMMATORY THERAPY IN ARRHYTHMOGENIC CARDIOMYOPATHY (ACM)” (Beth Israel Deaconess Medical Center, Inc., priority 2018, published 2021)

System: hearts of Dsg2^mut/mut mice
Test: Cytokine arrays in mouse hearts
Assay type: in vivo
Protocol: Three cohorts of mice at 8 weeks of age were anesthetized and implanted with subcutaneous osmotic mini-pumps (Alzet, Model 1004). These included: 1) Dsg2^mut/mut mice with pumps containing 50 μg/μL Bay11-7082 in a vehicle of 65% DMSO, 15% ethanol, and 20% saline; 2) Dsg2^mut/mut mice with pumps containing an equivalent volume of vehicle; and 3) wildtype mice with pumps containing vehicle. Mice in cohort 1 received 5 mg/kg/day of Bay11-7082 by continuous infusion; those in cohorts 2 and 3 received an equivalent volume of vehicle each day for 4 weeks. At 12 weeks of age, mice were re-anesthetized and new Alzet pumps were implanted for an additional 4 weeks of treatment.
Myocardium from mice was lyzed in RIPA buffer and cardiac myocytes from patient hiPSCs were lysed in TRIzol, and protein in lysates was quantified by standard BCA protein assay. Mouse (R&D Systems, Cat. No. ARY028) and Human (R&D Systems, Cat. No. ARY022B) Proteome Profiler XL Cytokine Arrays were blocked at room temperature for 1 hour before being incubated overnight at 4° C. with 200 μg of myocardial protein in blocking buffer supplied by manufacturer. Additional arrays were incubated overnight at 4° C. with 200 μl of hiPSC-cardiac myocyte culture medium according to the manufacturer's protocol for cell supernatants. Following overnight incubation, arrays were washed four times (10 minutes/wash), incubated at room temperature for 1 hour with Antibody Detection Cocktail, washed an additional four times (10 minutes/wash), then incubated with 1:2,000 Streptavidin-HRP in blocking buffer for 30 minutes at room temperature. Arrays were then washed four times and chemiluminescence was performed using the Chemi Reagent Mix included in the assay kits.
Data are presented as mean±SEM. Specific n-values are inset within each figure legend or table. P<0.05 was deemed statistically significant. As appropriate, associations between continuous dependent variables were tested using Student's paired/unpaired t-tests (binary independent variables) or one-way ANOVA (two or more variables). In the in vivo studies involving Dsg2^mut/mut mice, correlations between (i) ejection fraction and the amounts of myocardial fibrosis and apoptosis, (ii) cytokine expression levels and ejection fraction, and (iii) the levels of each individual cytokine against all other cytokines were made using Pearson's r analysis. Changes in cytokine levels in WT vs. Dsg2^mut/mut and/or untreated vs. Bay 11-7082-treated Dsg2^mut/mut mice were analyzed by two-way ANOVA with Tukey's post-hoc testing. The levels of any cytokines showing a significant change were then correlated with ejection fraction in each animal using Pearson's r analysis. In addition, the levels of all cytokines (n=111) were analyzed in a Pearson's correlation matrix table to correlate the expression level of each individual cytokine with all other cytokines.

[1] = Dsg2^mut/mut (Bay11-7082) vs Dsg2^mut/mut
[2] = Dsg2^mut/mut (Bay11-7082) vs WT
[3] = Dsg2^mut/mut mice with pumps containing 50 μg/μL Bay11-7082

SMILES: Cc1ccc(S(=O)(=O)/C=C/C#N)cc1 [Bay 11-7082]
- Adiponectin expression [1]: <1
- Amphiregulin expression [1]: <1
- Angiopoietin-1 expression [1]: <1
- Angiopoietin-2 expression [1]: 1-2
- Angiopoietin-like 3 expression [1]: <1
- BAFF/BLyS/TNFSF13B expression [1]: <1
- C1qR1/CD93 expression [1]: <1
- C-Reactive Protein/CRP expression [1]: <1
- CCL2/JE/MCP-1 expression [1]: <1
- CCL3/CCL4/MIP-1a/B expression [1]: <1
- CCL5/RANTES expression [1]: <1
- CCL6/C10 expression [1]: <1
- CCL17/TARC expression [1]: <1
- CCL19/MIP-3B expression [1]: <1
- CCL20/MIP-3a expression [1]: <1
- CCL21/6Ckine expression [1]: <1
- CCL22/MDC expression [1]: <1
- CD14 expression [1]: 1-2
- CD40/TNFRSF5 expression [1]: <1
- CD160 expression [1]: <1
- CX3CL1/Fractalkine expression [1]: <1
- CXCL9/MIG expression [1]: <1
- CXCL13/BLC/BCA-1 expression [1]: <1
- CXCL16 expression [1]: <1
- Chemerin expression [1]: <1
- Chitinase 3-like 1 expression [1]: <1
- Coagulation Factor III/Tissue Factor expression [1]: <1
- Complement Component C5/C5a expression [1]: <1
- Complement Factor D expression [1]: <1
- Cystatin C expression [1]: <1
- DKK-1 expression [1]: <1
- DPPIV/CD26 expression [1]: <1
- E-Selectin/CD62E expression [1]: <1
- EGF expression [1]: <1
- Endoglin/CD105 expression [1]: <1
- Endostatin expression [1]: <1
- Eotaxin (CCL11) expression [1]: <1
- FGF acidic expression [1]: <1
- FGF-21 expression [1]: <1
- FLt-3 Ligand expression [1]: <1
- Fetuin A/AHSG expression [1]: <1
- G-CSF expression [1]: <1
- GDF-15 expression [1]: <1
- GM-CSF expression [1]: <1
- Gas 6 expression [1]: <1
- HGF expression [1]: <1
- I-TAC (Cxcl11) expression [1]: <1
- IFN-y expression [1]: <1
- IGFBP-1 expression [1]: <1
- IGFBP-2 expression [1]: <1
- IGFBP-3 expression [1]: <1
- IGFBP-5 expression [1]: <1
- IGFBP-6 expression [1]: <1
- IL-1a (IL-1F1) expression [1]: <1
- IL-1ra (IL-1F3) expression [1]: <1
- IL-1β (IL-1F2) expression [1]: <1
- IL-2 expression [1]: <1
- IL-3 expression [1]: <1
- IL-4 expression [1]: <1
- IL-5 expression [1]: <1
- IL-6 expression [1]: <1
- IL-7 expression [1]: <1
- IL-10 expression [1]: <1
- IL-11 expression [1]: <1
- IL-12 p40 expression [1]: <1
- IL-13 expression [1]: <1
- IL-15 expression [1]: <1
- IL-17a expression [1]: <1
- IL-22 expression [1]: <1
- IL-23 expression [1]: <1
- IL-27 p28 expression [1]: <1
- IL-28A/B expression [1]: <1
- IL-33 expression [1]: <1
- IP-10 (CXL10/CRG-2) expression [1]: <1
- KC (CXCL1) expression [1]: <1
- LDL R expression [1]: 1-2
- LIF expression [1]: <1
- LIX expression [1]: <1
- Leptin expression [1]: <1
- Lipocalin-2/NGAL expression [1]: <1
- M-CSF expression [1]: 1-2
- MCP-5 (CCL12) expression [1]: <1
- MIP-2 (CXCL2) expression [1]: <1
- MMP-2 expression [1]: 1-2
- MMP-3 expression [1]: 1-2
- MMP-9 expression [1]: <1
- Myeloperoxidase expression [1]: <1
- Osteopontin (OPN) expression [1]: <1
- Osteoprotegerin/TNFRSF11B expression [1]: <1
- P-Selectin/CD62P expression [1]: <1
- PD-EGF/Thymidine phosphorylase expression [1]: <1
- PDGF-BB expression [1]: <1
- Pentraxin 2/SAP expression [1]: <1
- Pentraxin 3/TSG-14 expression [1]: <1
- Periostin/OSF-2 expression [1]: <1
- Pref-1/DLK-1/FA1 expression [1]: <1
- Proliferin expression [1]: <1
- Proprotein Convertase 9/PCSK9 expression [1]: 1-2
- RAGE expression [1]: <1
- RBP4 expression [1]: <1
- Reg3G expression [1]: <1
- Resistin expression [1]: <1
- Serpin E1/PAI-1 expression [1]: <1
- Serpin F1/PEDF expression [1]: <1
- TIM-1/KIM-1/HAVCR expression [1]: 1-2
- TNF-α expression [1]: <1
- Thrombopoeitin expression [1]: 1-2
- VCAM-1/CD106 expression [1]: 1-2
- VEGF expression [1]: 1-2
- WISP-1/CCN4 expression [1]: <1
- sICAM-1 (CD54) expression [1]: <1
- Adiponectin expression [2]: <1
- Amphiregulin expression [2]: <1
- Angiopoietin-1 expression [2]: <1
- Angiopoietin-2 expression [2]: <1
- Angiopoietin-like 3 expression [2]: <1
- BAFF/BLyS/TNFSF13B expression [2]: <1
- C1qR1/CD93 expression [2]: <1
- C-Reactive Protein/CRP expression [2]: <1
- CCL2/JE/MCP-1 expression [2]: <1
- CCL3/CCL4/MIP-1a/B expression [2]: <1
- CCL5/RANTES expression [2]: <1
- CCL6/C10 expression [2]: <1
- CCL17/TARC expression [2]: <1
- CCL19/MIP-3B expression [2]: <1
- CCL20/MIP-3a expression [2]: <1
- CCL21/6Ckine expression [2]: <1
- CCL22/MDC expression [2]: <1
- CD14 expression [2]: <1
- CD40/TNFRSF5 expression [2]: <1
- CD160 expression [2]: <1
- CX3CL1/Fractalkine expression [2]: <1
- CXCL9/MIG expression [2]: <1
- CXCL13/BLC/BCA-1 expression [2]: 2-4
- CXCL16 expression [2]: <1
- Chemerin expression [2]: <1
- Chitinase 3-like 1 expression [2]: <1
- Coagulation Factor III/Tissue Factor expression [2]: <1
- Complement Component C5/C5a expression [2]: <1
- Complement Factor D expression [2]: <1
- Cystatin C expression [2]: <1
- DKK-1 expression [2]: <1
- DPPIV/CD26 expression [2]: 1-2
- E-Selectin/CD62E expression [2]: <1
- EGF expression [2]: 1-2
- Endoglin/CD105 expression [2]: <1
- Endostatin expression [2]: <1
- Eotaxin (CCL11) expression [2]: <1
- FGF acidic expression [2]: <1
- FGF-21 expression [2]: <1
- FLt-3 Ligand expression [2]: <1
- Fetuin A/AHSG expression [2]: <1
- G-CSF expression [2]: 1-2
- GDF-15 expression [2]: <1
- GM-CSF expression [2]: <1
- Gas 6 expression [2]: <1
- HGF expression [2]: 4-6
- I-TAC (Cxcl11) expression [2]: <1
- IFN-y expression [2]: 1-2
- IGFBP-1 expression [2]: 1-2
- IGFBP-2 expression [2]: <1
- IGFBP-3 expression [2]: <1
- IGFBP-5 expression [2]: <1
- IGFBP-6 expression [2]: <1
- IL-1a (IL-1F1) expression [2]: <1
- IL-1ra (IL-1F3) expression [2]: 1-2
- IL-1β (IL-1F2) expression [2]: 6-10
- IL-2 expression [2]: <1
- IL-3 expression [2]: <1
- IL-4 expression [2]: <1
- IL-5 expression [2]: <1
- IL-6 expression [2]: <1
- IL-7 expression [2]: <1
- IL-10 expression [2]: <1
- IL-11 expression [2]: <1
- IL-12 p40 expression [2]: 1-2
- IL-13 expression [2]: 1-2
- IL-15 expression [2]: 2-4
- IL-17a expression [2]: <1
- IL-22 expression [2]: <1
- IL-23 expression [2]: <1
- IL-27 p28 expression [2]: <1
- IL-28A/B expression [2]: 1-2
- IL-33 expression [2]: 2-4
- IP-10 (CXL10/CRG-2) expression [2]: <1
- KC (CXCL1) expression [2]: <1
- LDL R expression [2]: 1-2
- LIF expression [2]: <1
- LIX expression [2]: >10
- Leptin expression [2]: 1-2
- Lipocalin-2/NGAL expression [2]: <1
- M-CSF expression [2]: >20
- MCP-5 (CCL12) expression [2]: <1
- MIP-2 (CXCL2) expression [2]: <1
- MMP-2 expression [2]: 4-6
- MMP-3 expression [2]: <1
- MMP-9 expression [2]: <1
- Myeloperoxidase expression [2]: 2-4
- Osteopontin (OPN) expression [2]: 4-6
- Osteoprotegerin/TNFRSF11B expression [2]: <1
- P-Selectin/CD62P expression [2]: >10
- PD-EGF/Thymidine phosphorylase expression [2]: <1
- PDGF-BB expression [2]: 1-2
- Pentraxin 2/SAP expression [2]: 1-2
- Pentraxin 3/TSG-14 expression [2]: <1
- Periostin/OSF-2 expression [2]: <1
- Pref-1/DLK-1/FA1 expression [2]: 6-10
- Proliferin expression [2]: 6-10
- Proprotein Convertase 9/PCSK9 expression [2]: <1
- RAGE expression [2]: <1
- RBP4 expression [2]: 1-2
- Reg3G expression [2]: 6-10
- Resistin expression [2]: 2-4
- Serpin E1/PAI-1 expression [2]: 6-10
- Serpin F1/PEDF expression [2]: <1
- TIM-1/KIM-1/HAVCR expression [2]: <1
- TNF-α expression [2]: 1-2
- Thrombopoeitin expression [2]: <1
- VCAM-1/CD106 expression [2]: 6-10
- VEGF expression [2]: <1
- WISP-1/CCN4 expression [2]: <1
- sICAM-1 (CD54) expression [2]: 1-2
- LIX (CXCL5) level [3]: markedly reduced
- OPN expression [3]: reduced
- increased expression of cytokines in Dsg2^mut/mut hearts (in most, but not all, cases): blunted or fully normalized
